Entries after “also recorded” stand apart in the source; their conditions may differ. Where two headings read alike, the source gives them in different places.
How the values were obtained:
[1] = system: carrageenin-induced paw edema; experiment: Anti-inflammatory: carrageenin-induced paw edema test in the rat (modified Winter et al.); format: in vivo; details: for ED50: po, read-out: ED50 p.o. Anti-inflammatory (Carrageenin)
[2] = system: phenylquinone-induced muscular writhing; experiment: Analgesic: phenylquinone-induced muscular writhing test in mice (modified Siegmund et al.); format: in vivo; details: for ED50: Mus musculus, po, read-out: ED50 p.o. Analgesic (Phenylquinone)
yeast-induced fever = experiment: Anti-pyretic: yeast-induced fever test in rats; format: in vivo; details: Rattus norvegicus, po, read-out: ED50 p.o. Anti-Pyretic (Yeast)
rats = experiment: in vivo; format: in vivo
Experimental: (§1) Acute toxicities are determined in rats and in mice and the LD50 's are calculated according to the method of Litchfield and Wilcoxon, J.Pharmacol.Exp. Therap.

in vivo [3] = format: in vivo; details: rat, in vivo, po; rats; read-out: Acute Toxicity (LD50) p.o.
Experimental: as §1

in vivo [4] = details: mouse, po, mice, read-out: Acute Toxicity (LD50) p.o.
Experimental: (§2) 138, 405 (1962), both in the rat. […] Acute toxicities are determined in rats and in mice and the LD50 's are calculated according to the method of Litchfield and Wilcoxon, J.Pharmacol.Exp. Therap. 96, 99 (1949).

cotton pellet granuloma = experiment: Antigranuloma: cotton pellet granuloma test in the rat; format: in vivo
Experimental: as §2

SMILES	ED50 ([1]; rat, carrageenin paw edema) [mg/kg]	ED50 ([2]; mice, phenylquinone writhing) [mg/kg]	ED50 (yeast-induced fever; rats, yeast-induced fever) [mg/kg]	other results
O=C(O)Cc1cc(-c2ccccc2)no1 [3-Phenylisoxazol-5-acetic Acid, 3-phenylisoxazol-5-acetic acid]	70 to 80	60 to 90	> 135	Acute Toxicity p.o. (dose with 100% mortality) (rats; p.o., rats, 100% mortality): 1500 mg/kg
COc1ccc(-c2noc(C(OC)C(=O)O)c2-c2ccc(OC)cc2)cc1 (stereo not drawn) [Sodium 3,4-Di(p-methoxyphenyl)isoxazol-5α-methoxyacetate]	120	60	> 120	
COc1ccc2c(c1)c(CC(=O)O)c(C)n2C(=O)c1ccc(Cl)cc1 [Indomethacin]				ED50 ([1]; Rattus norvegicus): 7 to 9 mg/kg; ED50 [2]: < 1 mg/kg; ED50 (yeast-induced fever): 3 to 5 mg/kg; LD50 (in vivo [3]): 27 mg/kg
CC1=C(CC(=O)O)c2cc(F)ccc2/C1=C\c1ccc([S+](C)[O-])cc1 (centres unmarked) [Sulindac]	20 to 30	7.5 to 10	7.5 to 10	
COc1ccc(-c2noc(CC(=O)O)c2-c2ccc(OC)cc2)cc1 [3,4,-Di(p-methoxyphenyl)isoxazol-5-acetic Acid]				ED50 ([1]; Rattus norvegicus): 25 to 40 mg/kg; anti-inflammatory activity (in words) ([1]; rat, listed as Example 4): remarkable anti-inflammatory and analgesic activities; also recorded: well within the range of the same activities shown for a number of established anti-inflammatory drugs and are markedly superior to the activities of known 3-arylisoxazol-5-acetic acids; ED50 [2]: 1.8 mg/kg; analgesic activity (in words) ([2]; mice, listed as Example 4): remarkable anti-inflammatory and analgesic activities; also recorded: well within the range of the same activities shown for a number of established anti-inflammatory drugs and are markedly superior to the activities of known 3-arylisoxazol-5-acetic acids; ED50 (yeast-induced fever): > 120 mg/kg; therapeutic index LD50/anti-inflammatory ED50 (in words) (rats; LD50 / anti-inflammatory ED50): favourable therapeutic index; order of toxicity (in words) (rats; rats and mice): low order of toxicity; LD50 (in vivo [4]): 1000 mg/kg; activity in antigranuloma test (in words) (cotton pellet granuloma): active in antigranuloma test
COc1ccc2cc([C@H](C)C(=O)O)ccc2c1 [Naproxen]	10 to 12	7.5 to 10	15 to 20	
COc1ccc(-c2cc(CC(=O)O)on2)cc1 [3-(p-methoxyphenyl)isoxazol-5-acetic acid]	> 135	60	> 120	
O=C(O)Cc1onc(-c2ccccc2)c1-c1ccccc1 [3,4-Diphenylisoxazol-5-acetic Acid]	120		120	LD50 (in vivo [4]): 670 mg/kg
CC(=O)Oc1ccccc1C(=O)O [Aspirin]	60 to 90	70 to 100		LD50 (in vivo [3]): 1740 mg/kg
CC(C)Cc1ccc(C(C)C(=O)O)cc1 (centres unmarked) [Ibuprofen]	15 to 30	15 to 25	15	
Cc1cccc(Nc2ccccc2C(=O)O)c1C [Mefenamic Acid]	45 to 55	7.5 to 10	7.5 to 10	
